Molecular target: CB1 receptor (Homo sapiens, UniProt P21554)
Test: CB1 cAMP Antagonist Assay (LANCE Ultra cAMP kit)
Assay type: cell-based
Conditions: Flp-In CHO cells stably expressing the CB1 receptor; forskolin and CP55940 agonist at EC90; cAMP FRET readout
Excerpt: CB1 cAMP Antagonist Assay
LANCE Ultra cAMP kit (Perkin Elmer) was used to quantitate the amount of 3′,5′-cyclic adenosine monophosphate (cAMP) produced in Flp-In CHO (Invitrogen) cells stably expressing the CB1 receptor.
Forskolin was initially titrated to determine the response of the cells. The EC90 of forskolin was used for compound testing. CP55940 was titrated and used with EC90 of forskolin to determine the level of agonist stimulation. EC90 of the agonist was used for subsequent compound testing.
Forskolin (Sigma), CP55940 (Cayman Chemicals), and AM251 (MCE) were diluted in 100% DMSO, starting at 100 mM, 1 mM, and 1 mM respectively, in 3-fold serial dilutions. Test compounds were diluted in 100% DMSO starting from 10 mM, 3-fold dilutions. The cAMP assay buffer contains 1x Hank’s Buffered Saline Solution with Ca^2+ and Mg^2+ (Invitrogen), 5.3 mM HEPES (Invitrogen), 0.05% BSA, 0.5 mM IBMX (Sigma).
For all assays, cells were harvested, counted, and diluted in cAMP assay buffer to 1× 10^5 cells/mL. Only cells with viability >85% were used for the assay. Cells were seeded at 1000 cells/well in 384-well plates and 10 nL/well AM251 or test compound was added and incubated at 37° C. for 10 min. […] To detect the amount of cAMP produced, 5 µL of a 100x diluted stock of Eu-cAMP tracer and 5 µL of 200x diluted stock of Ulight-anti-cAMP were added to each well, and the plate incubated at 25° C. for 15 min. The FRET signal was read using an EnVision microplate reader (λex=320 nm, λem=615 nm and 665 nm).
The IC50 is determined by fitting the percentage of inhibition as a function of compound concentrations with the Hill equation, using a 4-parameter fit in either XLfit or GraphPad Prism.

Sequence of CB1 receptor (P21554 whole entry): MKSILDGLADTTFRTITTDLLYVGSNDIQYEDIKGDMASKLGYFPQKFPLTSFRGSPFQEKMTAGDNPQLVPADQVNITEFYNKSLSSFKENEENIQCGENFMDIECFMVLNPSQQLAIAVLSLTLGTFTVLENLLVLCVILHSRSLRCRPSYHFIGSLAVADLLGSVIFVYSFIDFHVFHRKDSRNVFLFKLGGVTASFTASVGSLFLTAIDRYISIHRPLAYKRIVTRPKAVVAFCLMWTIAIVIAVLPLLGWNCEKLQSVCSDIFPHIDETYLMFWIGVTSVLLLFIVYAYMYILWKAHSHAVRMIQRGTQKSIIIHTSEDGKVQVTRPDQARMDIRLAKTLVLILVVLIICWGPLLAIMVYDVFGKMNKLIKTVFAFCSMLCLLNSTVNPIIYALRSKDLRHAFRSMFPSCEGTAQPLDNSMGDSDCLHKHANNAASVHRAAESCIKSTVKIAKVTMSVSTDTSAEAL

| Compound | IC50 |
| --- | --- |
| Cn1c(N2C[C@@H](c3ccccc3)C(c3ccc(Cl)cc3)=N2)nn(-c2ccc(CN3CCOCC3)cc2)c1=O [Compound 146] | > 5000 nM |
| Cn1c(N2C[C@@]3(CCc4ccccc43)C(c3ccc(Cl)cc3)=N2)nn(-c2ccc(Cl)cc2)c1=O [Compound 116] | > 5000 nM |
| NC(=O)Cn1c(N2C[C@@]3(CCc4ccccc43)C(c3ccc(Cl)cc3)=N2)nn(Cc2ccc(Cl)cc2)c1=O [Compound 125, 2-[3-[(1S)-3-(4-chlorophenyl)-1,2,3,5-tetrahydrospiro[indene-1,4-pyrazol]-1-yl]-1-[(4-chlorophenyl)methyl]-5-oxo-4,5-dihydro-1H-1,2,4-triazol-4-yl]acetamide] | 1000 to 5000 nM |
| Cn1c(N2CC3(CCc4ccccc43)C(c3ccc(Cl)cc3)=N2)nn(CC2CCCCC2)c1=O (stereo in doubt) [Compound 139, 3-[(1S)-3-(4-chlorophenyl)-1,2,3,5-tetrahydrospiro[indene-1,4-pyrazol]-1-yl]-1-(cyclohexylmethyl)-4-methyl-4,5-dihydro-1H-1,2,4-triazol-5-one] | 100 to 1000 nM |
| COc1ccc(Cn2nc(N3CC(c4ccccc4)C(c4ccc(Cl)cc4)=N3)n([C@@H](C)C(N)=O)c2=O)cc1OC (stereo partly drawn) [Compound 194, (2S)-2-[3-[3-(4-chlorophenyl)-4-phenyl-4,5-dihydropyrazol-1-yl]-1-[(3,4-dimethoxyphenyl)methyl]-5-oxo-1,2,4-triazol-4-yl]propanamide] | 100 to 1000 nM |
| Cc1ncc(Cn2nc(N3CC(c4ccccc4)C(c4ccc(Cl)cc4)=N3)n(C)c2=O)cn1 (stereo not drawn) [Compound 196] | 100 to 1000 nM |
| NC(=O)Cn1c(N2C[C@H](c3ccccc3)C(c3ccc(Cl)cc3)=N2)nn(-c2ccc(Cl)cc2)c1=O [Compound 111, (S)-2-(1-(4-chlorophenyl)-3-(3-(4-chlorophenyl)-4-phenyl-4,5-dihydro-1H-pyrazol-1-yl)-5-oxo-1,5-dihydro-4H-1,2,4-triazol-4-yl)acetamide] | < 100 nM |
| C[C@H](c1ccc(Cl)cc1)n1nc(N2C[C@@H](c3ccccc3)C(c3ccc(Cl)cc3)=N2)n(CC(N)=O)c1=O [Compound 152] | 1000 to 5000 nM |
| CCOC(=O)Cn1c(N2C[C@@H](c3ccccc3)C(c3ccc(Cl)cc3)=N2)nn(-c2ccc(Cl)cc2)c1=O [Compound 105, ethyl 2-[1-(4-chlorophenyl)-3-[(4R)-3-(4-chlorophenyl)-4-phenyl-4,5-dihydro-1H-pyrazol-1-yl]-5-oxo-4,5-dihydro-1H-1,2,4-triazol-4-yl]acetate] | < 100 nM |
| C[C@H](C(N)=O)n1c(N2C[C@@H](c3ccccc3)C(c3ccc(Cl)cc3)=N2)n[nH]c1=O [Compound 199] | > 5000 nM |
| COc1ccc(Cn2nc(N3C[C@H](c4ccccc4)C(c4ccc(Cl)cc4)=N3)n(C)c2=O)cc1 [Compound 143] | < 100 nM |
| C[C@@H](C(=O)NCCO)n1c(N2C[C@H](c3ccccc3)C(c3ccc(Cl)cc3)=N2)nn(Cc2ccc(Cl)cc2)c1=O [Compound 184, (2S)-2-[3-[(4S)-3-(4-chlorophenyl)-4-phenyl-4,5-dihydropyrazol-1-yl]-1-[(4-chlorophenyl)methyl]-5-oxo-1,2,4-triazol-4-yl]-N-(2-hydroxyethyl)propanamide] | < 100 nM |
| C[C@@H](C(N)=O)n1c(N2C[C@H](c3ccccc3)C(c3ccc(Cl)cc3)=N2)nn(Cc2ccc(Cl)cn2)c1=O [Compound 207] | < 100 nM |
| Cn1c(N2C[C@@H](c3ccccc3)C(c3ccc(Cl)cc3)=N2)nn(Cc2ccc(Cl)cc2)c1=O [Compound 103] | < 100 nM |
| Cn1c(N2C[C@H](c3ccccc3)C(c3ccc(Cl)cc3)=N2)nn(-c2ccc(Cl)cc2)c1=O [Compound 101, 1-(4-chlorophenyl)-3-[(4S)-3-(4-chlorophenyl)-4-phenyl-4,5-dihydro-1H-pyrazol-1-yl]-4-methyl-4,5-dihydro-1H-1,2,4-triazol-5-one] | < 100 nM |
| CN1CCN(Cc2ccc(Cn3nc(N4C[C@@H](c5ccccc5)C(c5ccc(Cl)cc5)=N4)n(C)c3=O)cc2)CC1 [Compound 135] | > 5000 nM |
| C[C@H](C(N)=O)n1c(N2C[C@@H](c3ccccc3)C(c3ccc(Cl)cc3)=N2)nn(Cc2ccc(Cl)cc2)c1=O [Compound 180] | > 5000 nM |
| Cn1c(N2CC(c3ccccc3)C(c3ccc(Cl)cc3)=N2)nn(Cc2cccc(C#N)c2)c1=O (stereo not drawn) [Compound 170] | < 100 nM |

| Compound | IC50 |
| --- | --- |
| Cn1c(N2C[C@]3(CCc4ccccc43)C(c3ccc(Cl)cc3)=N2)nn(Cc2ccc(Cl)cc2)c1=O [Compound 115, 3-[(1R)-3-(4-chlorophenyl)-1,2,3,5-tetrahydrospiro[indene-1,4-pyrazol]-1-y1]-1-[(4-chlorophenyl)methyl]-4-methyl-4,5-dihydro-1H-1,2,4-triazol-5-one] | 1000 to 5000 nM |
| NC(=O)Cn1c(N2C[C@H](c3ccccc3)C(c3ccc(Cl)cc3)=N2)nn(Cc2ccc(CN3CCOCC3)cc2)c1=O [Compound 145, 2-[3-[(4S)-3-(4-chlorophenyl)-4-phenyl-4,5-dihydro-1H-pyrazol-1-yl]-1-([4-[(morpholin-4-yl)methyl]phenyl]methyl)-5-oxo-4,5-dihydro-1H-1,2,4-triazol-4-yl]acetamide] | 100 to 1000 nM |
| C[C@H](C(N)=O)n1c(N2C[C@H](c3ccccc3)C(c3ccc(Cl)cc3)=N2)n[nH]c1=O [Compound 206] | > 5000 nM |
| O=c1n(Cc2ccc(Cl)cc2)nc(N2CC3(CCc4ccccc43)C(c3ccc(Cl)cc3)=N2)n1CCO (stereo in doubt) [Compound 118, 3-[(1R)-3-(4-chlorophenyl)-1,2,3,5-tetrahydrospiro[indene-1,4-pyrazol]-1-yl]-1-[(4-chlorophenyl)methyl]-4-(2-hydroxyethyl)-4,5-dihydro-1H-1,2,4-triazol-5-one] | 100 to 1000 nM |
| C[C@@H](C(N)=O)n1c(N2C[C@@H](c3ccccc3)C(c3ccc(Cl)cc3)=N2)n[nH]c1=O [Compound 209, (2S)-2-[3-[(4R)-3-(4-chlorophenyl)-4-phenyl-4,5-dihydropyrazol-1-yl]-5-oxo-1H-1,2,4-triazol-4-yl]propanamide] | > 5000 nM |
| CC(C(N)=O)n1c(N2CC(c3ccccc3)C(c3ccc(Cl)cc3)=N2)nn(CC2CCCCC2)c1=O (stereo not drawn) [Compound 158, 2-[3-[3-(4-chlorophenyl)-4-phenyl-4,5-dihydropyrazol-1-yl]-1-(cyclohexylmethyl)-5-oxo-1,2,4-triazol-4-yl]propanamide] | < 100 nM |
| C[C@H](C(N)=O)n1c(N2C[C@@H](c3ccccc3)C(c3ccc(Cl)cc3)=N2)nn(Cc2ccc(Cl)cn2)c1=O [Compound 213] | > 5000 nM |
| Cn1c(N2CC(c3ccccc3)C(c3ccc(Cl)cc3)=N2)nn(Cc2cccc(C(=O)O)c2)c1=O (stereo not drawn) [Compound 186] | > 5000 nM |
| NC(=O)CCn1c(N2C[C@]3(CCc4ccccc43)C(c3ccc(Cl)cc3)=N2)nn(-c2ccc(Cl)cc2)c1=O [Compound 126, 3-[1-(4-chlorophenyl)-3-[(1R)-3-(4-chlorophenyl)-1,2,3,5-tetrahydrospiro[indene-1,4-pyrazol]-1-yl]-5-oxo-4,5-dihydro-1H-1,2,4-triazol-4-yl]propanamide] | 100 to 1000 nM |
| COc1ccc(Cn2nc(N3CC(c4ccccc4)C(c4ccc(Cl)cc4)=N3)n([C@H](C)C(N)=O)c2=O)cc1OC (stereo partly drawn) [Compound 197, (2R)-2-[3-[3-(4-chlorophenyl)-4-phenyl-4,5-dihydropyrazol-1-yl]-1-[(3,4-dimethoxyphenyl)methyl]-5-oxo-1,2,4-triazol-4-yl]propanamide] | 100 to 1000 nM |
| NC(=O)Cn1c(N2C[C@@H](c3ccccc3)C(c3ccc(Cl)cc3)=N2)nn(-c2ccc(Cl)cc2)c1=O [Compound 108, 2-[1-(4-chlorophenyl)-3-[(4R)-3-(4-chlorophenyl)-4-phenyl-4,5-dihydro-1H-pyrazol-1-yl]-5-oxo-4,5-dihydro-1H-1 ,2,4-triazol-4-yl]acetamide] | < 100 nM |
| COc1ccc(Cn2nc(N3C[C@@H](c4ccccc4)C(c4ccc(Cl)cc4)=N3)n(C)c2=O)cc1 [Compound 142] | 1000 to 5000 nM |
| COC(=O)c1ccc(Cn2nc(N3CC(c4ccccc4)C(c4ccc(Cl)cc4)=N3)n(C)c2=O)cc1 (stereo not drawn) [Compound 168] | < 100 nM |
| CC(C(N)=O)n1c(N2C[C@H](c3ccccc3)C(c3ccc(Cl)cc3)=N2)nn(Cc2ccc(CN3CCOCC3)cc2)c1=O (stereo partly drawn) [Compound 167] | 100 to 1000 nM |
| C[C@@H](C(N)=O)n1c(N2C[C@@H](c3ccccc3)C(c3ccc(Cl)cc3)=N2)nn(Cc2ccc(Cl)cc2)c1=O [Compound 179] | > 5000 nM |
| Cn1c(N2C[C@@H](c3ccccc3)C(c3ccc(Cl)cc3)=N2)nn(CCc2ccc(C(=O)NCCO)cc2)c1=O [Compound 210] | > 5000 nM |
| C[C@@H](c1ccc(Cl)cc1)n1nc(N2C[C@H](c3ccccc3)C(c3ccc(Cl)cc3)=N2)n(CC(N)=O)c1=O [Compound 153] | < 100 nM |
| Cc1ccc(Cn2nc(N3CC(c4ccccc4)C(c4ccc(Cl)cc4)=N3)n(C)c2=O)cn1 (stereo not drawn) [Compound 183] | 100 to 1000 nM |
